± gives the expanded uncertainty stated by the source.
Settings: 298.15 K; 101.33 kPa; Liquid; Vibrating tube method

`CCC(O)CC` [3-pentanol] gave a mass density of 815.8 ± 1.7 kg/m3.
With `C[N+](=O)[O-]` [nitromethane] the mass density was 1131.1 ± 2.3 kg/m3.

Reference: the NIST ThermoML archive (doi:10.1016/j.jct.2018.08.035)
